Measured values as given in patent publication US9884122B2, “Small molecule drug conjugates” (Philochem AG, priority 2014, dated 2018).
Read-outs that look alike come from different tables or passages of the source. One block for each compound: values may come before it.

Columns and labels:
[1] = target: T1, CAIX (Homo sapiens, UniProt Q16790); experiment: Affinity determination of CAIX ligands by fluorescence polarization; type: binding; conditions: PBS pH 7.4, 22° C., 1 h; read-out: Kd by fluorescence polarization in solution
T1 construct: His6; made in house
Experimental: Fluorescein labelled ligands (5 nM diluted with PBS from DMSO stocks, final DMSO content adjusted to 0.001%) were incubated at 22° C. for 1 h in a black 384-well plate (Greiner, non-binding) in PBS (pH 7.4) with increasing concentrations of CAIX to a final volume of 60 μl. The fluorescence anisotropy was measured on a Spectra Max Paradigm multimode plate reader (Molecular Devices). Experiments were performed in triplicate and the mean anisotropy values fitted to the following equation using KaleidaGraph 4.1.3 (Synergy Software),
[formula] where A is the anisotropy, [P]0 the total protein concentration, [L]0 the total concentration of the fluorescently labelled ligand and KD the dissociation constant.

[2] = system: CAIX expressing SKRC52 cells; experiment: Ligand binding analysis by flow cytometry, SKRC52; type: cell-based, human; conditions: 30 nM dye conjugate, 1 h at 0° C., washed
Experimental: Cells were detached from culture plates using a 50 mM EDTA solution in phosphate buffered saline (PBS) pH 7.4, counted and suspended to a final concentration of 1.5×10^6 cells mL^−1 in a 1% v/v solution of FCS in PBS pH 7.4. Aliquots of 3×10^5 cells (200 μL) were spun down and resuspended in solutions of IRDye750 (Licor) labeled ligands (30 nM) in a 1% v/v solution of FCS in PBS pH 7.4 (200 μL) and incubated on ice for 1 h. Cells were washed once with 200 μL 1% v/v solution of FCS in PBS pH 7.4 (200 μL), spun down, resuspended in 1% v/v solution of FCS in PBS pH 7.4 (300 μL) and analyzed on a FACS Canto flow cytometer (BD Bioscience). FlowJo Version 8.7 (Treestar) was used for data analysis and visualization. Results were as follows: • (1) Flow cytometry analysis of binding of ligand-IRDye750 conjugates 1c-6c (FIG. 1) to CAIX expressing SKRC52 cells.
Flow cytometry was performed as described above with monovalent and bivalent near infrared dye conjugates B3 and B4 and negative control conjugates lacking the ligand on CAIX-positive SKRC52 cells and CAIX-negative HEK cells^5.

[3] = system: CAIX positive SKRC52 cells; experiment: Ligand internalization analysis by flow cytometry, SKRC52; type: cell-based, human
Experimental: SKRC52 or A549 cells were seeded in 6-well plates in their appropriate culture medium (2 mL) at a density of 1.5×10^5 cells per well and allowed to grow for 24 h under culture conditions. The medium was replaced with medium containing IRDye750 (Licor) labeled probes 1c or 6c (2 mL, 30 nM) and plates incubated for 1, 2 or 4 h under standard culture conditions. After washing with PBS pH 7.4 (2×2 mL), Trypsin-EDTA 0.05% (500 μL, Invitrogen) was added and plates incubated under standard culture conditions for 15 min Medium (500 μL) was added, cells pelleted and resuspended in PBS pH 7.4 containing 1% v/v FCS (150 μL). After incubating for 15 min on ice, cells were labeled for 30 min on ice with rabbit anti human CAIX IgG (1:100, Santa Cruz) in PBS pH 7.4 containing 1% FCS (150 μL), washed with PBS pH 7.4 containing 1% FCS (2×150 μL) and labeled for 30 min on ice with goat anti rabbit IgG Alexa488 conjugate (1:100, Invitrogen) in PBS pH 7.4 containing 1% FCS (150 μL). After washing with PBS pH 7.4 containing 1% FCS (2×150 μL), cells were pelleted and resuspended in PBS pH 7.4 containing 1% v/v FCS and propidium iodide (300 μL, 1 μg mL^−1, Invitrogen) and analyzed on a FACS Canto flow cytometer (BD Bioscience). FlowJo Version 8.7 (Treestar) was used for data analysis and visualization. To inhibit uptake mechanisms, cells were pre-incubated with medium containing 0.2% NaN3 for 1 h and the NaN3 concentration maintained throughout the entire experiment. Alternatively, all steps were performed at 0° C. or an excess of AAZ (100 μM) was added to the culture medium.

[4] = system: subcutaneous SKRC52 tumors
[5] = system: subcutaneous SKRC52 tumors; conditions: mouse, in vivo
[6] = in vivo; conditions: balb/c nu/nu, mouse, iv

Kd [1]: 0.2 ± 0.1 nM
SMILES: CC(CCC(=O)N[C@@H](CC(=O)N[C@@H](CC(=O)N[C@@H](CCCCn1cc(CCCC(=O)Nc2nnc(S(N)(=O)=O)s2)nn1)C(=O)NCCOCCOCCN)C(=O)O)C(=O)O)(c1ccc(O)cc1)c1ccc(O)cc1 [Compound C5a, N-[4,4-bis(4-hydroxyphenyl)pentanoyl]-β-aspartyl-β-aspartyl-N-{2-[2-(2-aminoethoxy)ethoxy]ethyl}-6-(4-{4-oxo-4-[(5-sulfamoyl-1,3,4-thiadiazol-2-yl)amino]butyl}-1H-1,2,3-triazol-1-yl)-L-norleucinamide]

SMILES: CC1(C)C(/C=C/C2=C(c3ccc(CCCCC(=O)NCCOCCOCCNC(=O)CCC(=O)Nc4nnc(S(N)(=O)=O)s4)cc3)C(=C/C=C3/N(CCCCS(=O)(=O)O)c4ccc(S(=O)(=O)[O-])cc4C3(C)C)/CCC2)=[N+](CCCCS(=O)(=O)O)c2ccc(S(=O)(=O)O)cc21 [Compound 1c, N1-(2-(2-(2-aminoethoxy)ethoxy)ethyl)-N4-(5-sulfamoyl-1,3,4-thiadiazol-2-yl)succinamide IRDye750 conjugate]
binding to SKRC52 cells (fluorescence shift) [2]: binds strongly enough to result in a strong fluorescence shift after washing of cells
internalization with extended incubation time ([3]; 30 nM at 37° C., 2 h and 4 h versus 1 h): did not see a markedly increased signal
internalization under conditions inhibiting uptake ([3]; 30 nM, 0.2% w/v NaN3, same with excess AAZ or at 0° C.): fluorescent signal was shifted to baseline
internalization: fluorescence after trypsin detachment ([3]; 30 nM, 1 h at 37° C.): higher fluorescence intensity than cells treated with non-binding conjugate 6c or untreated cells
tumor visibility by near infrared imaging ([4]; 1 nmol intravenous, 1 h): the tumor could clearly be seen against background
tumor targeting by near infrared imaging ([4]; 3 nmol intravenous, 1-12 h): gave good tumor to background contrast
tumor to heart ratio [5]: 27.6:1
tumor-to-blood ratio [5]: 79.2:1
tumor-to-organ ratio, kidneys [5]: 1.4:1
tumor-to-organ ratio, liver [5]: 0.2:1
tumor-to-blood ratio ([5]; iv): 13.8:1
half-life [6]: ~60 min
